Measurements from patent US20240382483A1, “HETEROCYCLIC EGFR INHIBITORS FOR USE IN THE TREATMENT OF CANCER” (Blueprint Medicines Corporation, priority 2021, published 2024).
Counter-ions that a name gives are not always drawn. Like-named read-outs stand apart in the source and are kept apart here.

Legend:
EGFR (L858R T790M C797S) = molecular target: T1, EGFR (L858R T790M C797S) (Homo sapiens, UniProt P00533, C797S/L858R/T790M); experiment: Biochemical EGFR inhibition assay (Caliper mobility shift), EGFR LRTMCS
T1 construct: purchased SignalChem E10-122VG
T1 sequence (P00533 25-1210 T790M/C797S/L858R): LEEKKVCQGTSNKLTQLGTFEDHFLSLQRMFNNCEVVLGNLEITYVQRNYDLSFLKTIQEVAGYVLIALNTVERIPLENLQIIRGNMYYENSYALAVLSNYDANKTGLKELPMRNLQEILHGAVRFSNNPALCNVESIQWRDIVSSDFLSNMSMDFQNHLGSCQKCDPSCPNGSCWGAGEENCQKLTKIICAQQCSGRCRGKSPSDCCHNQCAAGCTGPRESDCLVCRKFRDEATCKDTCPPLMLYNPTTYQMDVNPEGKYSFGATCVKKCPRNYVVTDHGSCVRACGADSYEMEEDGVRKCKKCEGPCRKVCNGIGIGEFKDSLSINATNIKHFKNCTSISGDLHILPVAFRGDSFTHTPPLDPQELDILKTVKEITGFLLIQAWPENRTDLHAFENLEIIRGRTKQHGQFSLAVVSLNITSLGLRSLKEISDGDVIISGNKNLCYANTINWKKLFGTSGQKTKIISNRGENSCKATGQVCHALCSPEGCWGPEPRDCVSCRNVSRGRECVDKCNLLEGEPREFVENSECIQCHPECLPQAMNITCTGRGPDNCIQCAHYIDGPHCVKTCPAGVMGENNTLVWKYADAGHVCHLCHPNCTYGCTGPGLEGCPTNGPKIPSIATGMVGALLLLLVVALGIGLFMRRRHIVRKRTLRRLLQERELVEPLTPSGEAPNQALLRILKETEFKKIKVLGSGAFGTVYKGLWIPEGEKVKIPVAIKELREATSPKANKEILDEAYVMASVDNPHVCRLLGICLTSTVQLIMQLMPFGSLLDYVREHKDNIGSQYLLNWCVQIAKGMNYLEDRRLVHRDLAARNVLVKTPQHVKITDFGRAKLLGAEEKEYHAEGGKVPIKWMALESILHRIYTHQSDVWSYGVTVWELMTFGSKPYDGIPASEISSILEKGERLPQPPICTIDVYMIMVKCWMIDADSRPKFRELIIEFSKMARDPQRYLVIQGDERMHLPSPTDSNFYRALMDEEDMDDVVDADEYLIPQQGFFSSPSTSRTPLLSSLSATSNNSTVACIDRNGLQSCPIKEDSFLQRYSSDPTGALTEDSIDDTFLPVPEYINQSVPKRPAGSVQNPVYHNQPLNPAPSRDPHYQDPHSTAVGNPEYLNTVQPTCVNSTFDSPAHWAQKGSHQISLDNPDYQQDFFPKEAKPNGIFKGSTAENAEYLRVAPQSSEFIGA
How it was run: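 Each enzyme was allowed to phosphorylate 10–20% of its peptide at 25° C. before EDTA (35 mM) quench. Separated substrate and product peaks were measured by mobility shift, giving apparent IC50 values.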

[1] = molecular target: T2, intracellular phosphorylation of EGFR in NCI-H1975 cell line that harbors the EGFR L858R T790M mutations (Homo sapiens, UniProt P00533, L858R/T790M); experiment: NCI-H1975 pEGFR AlphaLISA assay; assay type: cell-based; conditions: NCI-H1975 cells (EGFR L858R T790M), p-EGFR (Tyr1068), 4-5 hours incubation; read-out: Ext pEGFR H1975 GMean IC50 (nM) Protocol: @Pharmaron AlphaLISA (Num)
T2 construct: NCI-H1975 cell line that harbors the EGFR L858R T790M mutations (ATCC, CRL-5908); host or cells: NCI-H1975
T2 sequence (P00533 25-1210 T790M/L858R): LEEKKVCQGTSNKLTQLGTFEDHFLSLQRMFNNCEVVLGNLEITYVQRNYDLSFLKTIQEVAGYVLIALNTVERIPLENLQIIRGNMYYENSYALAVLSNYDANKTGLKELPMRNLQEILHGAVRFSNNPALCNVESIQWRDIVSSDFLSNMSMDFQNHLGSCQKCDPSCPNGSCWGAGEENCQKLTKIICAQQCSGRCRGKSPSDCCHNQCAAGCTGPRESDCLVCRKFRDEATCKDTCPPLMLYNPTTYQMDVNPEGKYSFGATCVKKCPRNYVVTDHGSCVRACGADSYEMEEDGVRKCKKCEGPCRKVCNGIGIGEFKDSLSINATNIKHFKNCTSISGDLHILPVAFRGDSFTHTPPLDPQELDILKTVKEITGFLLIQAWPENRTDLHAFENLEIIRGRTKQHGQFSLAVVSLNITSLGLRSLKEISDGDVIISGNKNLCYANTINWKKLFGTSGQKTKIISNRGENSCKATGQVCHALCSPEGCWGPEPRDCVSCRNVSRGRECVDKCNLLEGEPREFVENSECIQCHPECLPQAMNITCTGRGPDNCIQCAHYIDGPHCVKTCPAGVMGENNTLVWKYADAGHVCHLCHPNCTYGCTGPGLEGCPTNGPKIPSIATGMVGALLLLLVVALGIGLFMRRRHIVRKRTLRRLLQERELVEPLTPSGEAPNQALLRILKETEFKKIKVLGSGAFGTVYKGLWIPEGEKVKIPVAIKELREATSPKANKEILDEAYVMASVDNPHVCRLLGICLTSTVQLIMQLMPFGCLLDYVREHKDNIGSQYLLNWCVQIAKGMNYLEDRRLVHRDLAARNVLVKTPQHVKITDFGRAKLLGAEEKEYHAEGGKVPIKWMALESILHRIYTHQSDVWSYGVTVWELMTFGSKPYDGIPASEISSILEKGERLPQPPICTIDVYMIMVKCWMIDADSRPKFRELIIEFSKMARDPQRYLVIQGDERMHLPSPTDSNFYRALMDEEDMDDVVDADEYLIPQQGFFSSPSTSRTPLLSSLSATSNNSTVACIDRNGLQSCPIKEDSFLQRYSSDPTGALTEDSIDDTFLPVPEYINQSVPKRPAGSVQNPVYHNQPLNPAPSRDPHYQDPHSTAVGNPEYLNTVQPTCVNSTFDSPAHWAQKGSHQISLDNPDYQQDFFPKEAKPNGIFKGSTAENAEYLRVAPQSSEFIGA
Method: On the next day, the test compounds and DMSO control were added into H1975 cell plate followed by incubation at 37C/5% CO2 for 4-5 hours. […] Then 5 μL of a donor bead mix was added to each well followed by overnight incubation at room temperature in dark. On the next day, the plate was read at a compatible plate reader to obtain pEGFR signal. Percent of pEGFR inhibition was plotted against log concentration of compounds to generate IC50 values.

[2] = LRTMCS (PH) IC50 (nM) @ 1 mM ATP (Num), EGFR LRTMCS mutant

Compound | IC50 (EGFR (L858R T790M C797S); [2]) [nM] | IC50 [1] [nM] | IC50 (EGFR (L858R T790M C797S); read-out: LRTMCS (PH) IC50 (nM) @ 1 mM ATP (Num), EGFR LRTMCS mutant) [nM]
CO[C@H]1CCN(c2nccc(Nc3cc4c(C(C)C)cnc(N5CCC56CN(C)C6)c4cn3)n2)C[C@H]1F [Example 42, N-(2-((3R,4S)-3-fluoro-4-methoxypiperidin-1-yl)pyrimidin-4-yl)-5-isopropyl-8-(6-methyl-1,6-diazaspiro[3.3]heptan-1-yl)-2,7-naphthyridin-3-amine] | 20 to 30 | > 50 | –
CC(C)c1cnc(-c2cn(C3COC3)cn2)c2cnc(Nc3ccnc(N4CC[C@@H](O)[C@@](C)(F)C4)n3)cc12 [Example 20, (3S,4R)-3-fluoro-1-(4-((5-isopropyl-8-(1-(oxetan-3-yl)-1H-imidazol-4-yl)-2,7-naphthyridin-3-yl)amino)pyrimidin-2-yl)-3-methylpiperidin-4-ol] | < 15 | 30 to 50 | –
CC(C)c1cnc(-c2cnn(S(C)(=O)=O)c2)c2cnc(Nc3ccnc(N4CC[C@@H](O)[C@@](C)(F)C4)n3)cc12 [Example 18, (3S,4R)-3-fluoro-1-(4-((5-isopropyl-8-(1-(methylsulfonyl)-1H-pyrazol-4-yl)-2,7-naphthyridin-3-yl)amino)pyrimidin-2-yl)-3-methylpiperidin-4-ol] | 15 to 20 | 30 to 50 | –
CC(C)c1ncc(-c2cn(C)nn2)c2cnc(Nc3ccnc(N4CC[C@@H](O)[C@@](C)(F)C4)n3)cc12 [Example 12, (3S,4R)-3-fluoro-1-(4-((5-isopropyl-8-(1-methyl-1H-1,2,3-triazol-4-yl)-2,6-naphthyridin-3-yl)amino)pyrimidin-2-yl)-3-methylpiperidin-4-ol] | < 15 | 10 to 20 | –
CC(C)c1cnc(-c2cnn(C)c2CN(C)C)c2cnc(Nc3ccnc(N4CC[C@@H](O)[C@@](C)(F)C4)n3)cc12 [Example 13, (3S,4R)-1-(4-((8-(5-((dimethylamino)methyl)-1-methyl-1H-pyrazol-4-yl)-5-isopropyl-2,7-naphthyridin-3-yl)amino)pyrimidin-2-yl)-3-fluoro-3-methylpiperidin-4-ol trifluoroacetate] | 30 to 100 | > 50 | –
CC(C)c1ncc(N2CC(F)C2)c2cnc(Nc3ccnc(N4CC[C@@H](O)[C@@](C)(F)C4)n3)cc12 [Example 49, (3S,4R)-3-fluoro-1-(4-((8-(3-fluoroazetidin-1-yl)-5-isopropyl-2,6-naphthyridin-3-yl)amino)pyrimidin-2-yl)-3-methylpiperidin-4-ol] | 15 to 20 | 30 to 50 | –
CC(C)c1cnc(N2C[C@H](n3ccnn3)[C@H]2C)c2cnc(Nc3ccnc(N4CCC(C)(O)CC4)n3)cc12 [Example 130, 1-(4-((5-isopropyl-8-((2R,3S)-2-methyl-3-(1H-1,2,3-triazol-1-yl)azetidin-1-yl)-2,7-naphthyridin-3-yl)amino)pyrimidin-2-yl)-4-methylpiperidin-4-ol] | 15 to 20 | 20 to 30 | –
CC(C)c1cnc(N2CCC2)c2cnc(Nc3ccnc(N4CC[C@@H](O)[C@@H](F)C4)n3)cc12 [Example 152, (3S,4R)-1-(4-((8-(azetidin-1-yl)-5-isopropyl-2,7-naphthyridin-3-yl)amino)pyrimidin-2-yl)-3-fluoropiperidin-4-ol] | 15 to 20 | 30 to 50 | –
CC(C)c1ccc(C2CN(S(C)(=O)=O)C2)c2cnc(Nc3ccnc(N4CC[C@@H](O)[C@@](C)(F)C4)n3)cc12 [Example 3, (3S,4R)-3-fluoro-1-(4-((5-isopropyl-8-(1-(methylsulfonyl)azetidin-3-yl)isoquinolin-3-yl)amino)pyrimidin-2-yl)-3-methylpiperidin-4-ol] | < 15 | 20 to 30 | –

Second part, the compound after the results:

IC50 (EGFR (L858R T790M C797S); [2]) [nM] | IC50 [1] [nM] | IC50 (EGFR (L858R T790M C797S); read-out: LRTMCS (PH) IC50 (nM) @ 1 mM ATP (Num), EGFR LRTMCS mutant) [nM] | Compound
20 to 30 | 30 to 50 | – | C[C@@H]1CCN1c1ncc([C@@H](C)OCC2COC2)c2cc(Nc3ccnc(N4CC[C@@H](O)[C@@](C)(F)C4)n3)ncc12 (single isomer, unassigned) [Example 184, (3S,4R)-3-fluoro-3-methyl-1-(4-((8-((R)-2-methylazetidin-1-yl)-5-((R)-1-(oxetan-3-ylmethoxy)ethyl)-2,7-naphthyridin-3-yl)amino)pyrimidin-2-yl)piperidin-4-ol or (3S,4R)-3-fluoro-3-methyl-1-(4-((8-((R)-2-methylazetidin-1-yl)-5-((S)-1-(oxetan-3-ylmethoxy)ethyl)-2,7-naphthyridin-3-yl)amino)pyrimidin-2-yl)piperidin-4-ol]
– | 20 to 30 | < 15 | C[C@H](c1cnc(N2CC[C@H]2C)c2cnc(Nc3ccnc(N4CC[C@@H](O)[C@@](C)(F)C4)n3)cc12)C1COC1 (single isomer, unassigned) [Example 177, (3S,4R)-3-fluoro-3-methyl-1-(4-((8-((R)-2-methylazetidin-1-yl)-5-((S)-1-(oxetan-3-yl)ethyl)-2,7-naphthyridin-3-yl)amino)pyrimidin-2-yl)piperidin-4-ol or (3S,4R)-3-fluoro-3-methyl-1-(4-((8-((R)-2-methylazetidin-1-yl)-5-((R)-1-(oxetan-3-yl)ethyl)-2,7-naphthyridin-3-yl)amino)pyrimidin-2-yl)piperidin-4-ol]
15 to 20 | 20 to 30 | – | CC(C)c1cnc(N2CC(CCO)C2)c2cnc(Nc3ccnc(N4CC[C@@H](O)[C@@](C)(F)C4)n3)cc12 [Example 77, (3S,4R)-3-fluoro-1-(4-((8-(3-(2-hydroxyethyl)azetidin-1-yl)-5-isopropyl-2,7-naphthyridin-3-yl)amino)pyrimidin-2-yl)-3-methylpiperidin-4-ol]
20 to 30 | > 50 | – | C[C@@H]1[C@@H](O)CN1c1ncc(C2CC2)c2cc(Nc3ccnc(N4CC[C@@H](O)[C@@](C)(F)C4)n3)ncc12 [Example 102, (3S,4R)-1-(4-((5-cyclopropyl-8-((2R,3S)-3-hydroxy-2-methylazetidin-1-yl)-2,7-naphthyridin-3-yl)amino)pyrimidin-2-yl)-3-fluoro-3-methylpiperidin-4-ol]
20 to 30 | 30 to 50 | – | COCC1CN(c2ncc(C(C)C)c3cc(Nc4ccnc(N5CC[C@@H](O)[C@@](C)(F)C5)n4)ncc23)C1 [Example 66, (3S,4R)-3-fluoro-1-(4-((5-isopropyl-8-(3-(methoxymethyl)azetidin-1-yl)-2,7-naphthyridin-3-yl)amino)pyrimidin-2-yl)-3-methylpiperidin-4-ol]
30 to 100 | 30 to 50 | – | CC(C)c1cnc(N2CCC[C@H]2CN(C)C)c2cnc(Nc3ccnc(N4CC[C@@H](O)[C@@](C)(F)C4)n3)cc12 [Example 115, (3S,4R)-1-(4-((8-((S)-2-((dimethylamino)methyl)pyrrolidin-1-yl)-5-isopropyl-2,7-naphthyridin-3-yl)amino)pyrimidin-2-yl)-3-fluoro-3-methylpiperidin-4-ol]
< 15 | 30 to 50 | – | CNC[C@@H]1CCCN1c1ncc(C(C)C)c2cc(Nc3ccnc(N4CC[C@@H](O)[C@@](C)(F)C4)n3)ncc12 [Example 197, (3S,4R)-3-fluoro-1-(4-((5-isopropyl-8-((S)-2-((methylamino)methyl)pyrrolidin-1-yl)-2,7-naphthyridin-3-yl)amino)pyrimidin-2-yl)-3-methylpiperidin-4-ol]
< 15 | 20 to 30 | – | CC(C)c1ncc(N2CC[C@H]2C)c2cnc(Nc3ccnc(N4CC[C@@H](O)[C@@](C)(F)C4)n3)cc12 [Example 106, (3S,4R)-3-fluoro-1-(4-((5-isopropyl-8-((R)-2-methylazetidin-1-yl)-2,6-naphthyridin-3-yl)amino)pyrimidin-2-yl)-3-methylpiperidin-4-ol]
